Source: patent US8604034B2, “Substituted imidazo[1,2-α]pyrrolo[1,2-d]pyrazines for treating respiratory syncytial virus (RSV) infections” (Biota Scientific Management Pty Ltd., priority 2010, dated 2013)
Read-outs that look alike come from different tables or passages of the source.

System: RSV A2
Assay: RSV antiviral cytopathic effect (CPE) assay
Format: cell-based
Settings: human respiratory syncytial virus, HEp-2, 120 h, HEp2 cells infected with RSV A2 (moi ~0.01), 5 days, MTT readout
Method: Compounds of the invention were tested for their antiviral activity against respiratory syncytial virus. Cytopathic effect (CPE) assays were performed essentially as described in the literature (see for example Watanabe et al, 1994, J. Virological Methods, 48:257). Serial dilutions of the test compounds were made in 96 well plates. HEp2 cells (1.0×10^4 cells/well) were infected with RSV at a low multiplicity of infection (e.g. RSV A2 at an moi of ˜0.01) and added to plates to assess antiviral activity. Uninfected HEp2 cells were used to assess compound cytotoxicity. Assays were incubated for 5 days at 37° C. in a 5% CO2 atmosphere. The extent of CPE was determined via metabolism of the vital dye 3-(4,5-dimethylthiaxol-2-yl)-2,5-diphenyltetrazolium bromide (MTT). MTT (1 mg/ml) was added to each well and plates incubated for 2 hours incubation at 37° C. Wells were aspirated, iso-propanol (200 μL) was added and absorbance values read at 540/650 nm. Compound concentrations that inhibited CPE by 50% (EC50) and developed cytotoxicity (CC50) were calculated using non-linear regression analysis.
Representative mean EC50 values obtained are also provided. In the inventors' experience, replicate EC50 values usually fall within three standard deviations of the mean.

[1] = read-out: Activity Range (RSV A2 EC50)
[2] = mean EC50, read-out: RSV A2 EC50

EC50 [1] [nM] | EC50 [2] [nM] | SMILES
100 to 499 | 160 | Cc1nocc1C(=O)N1CCN2C(=O)c3cc(-c4cccnc4)cn3CC12c1ccc(CO)cc1 (stereo not drawn) [Compound 95, 10a-[4-(hydroxymethyl)phenyl]-1-[(3-methyl-1,2-oxazol-4-yl)carbonyl]-7-(pyridin-3-yl)-2,3,10,10a-tetrahydro-1H,5H-imidazo[1,2-a]pyrrolo[1,2-d]pyrazin-5-one]
100 to 499 | 150 | Cc1nocc1C(=O)N1CCN2C(=O)c3ccc(-c4cnn(C)c4)n3CC12c1ccc(F)cc1 (stereo not drawn) [Compound 96]
100 to 499 | 460 | Cc1nocc1C(=O)N1CCN2C(=O)c3ccc(-c4cccnc4)n3CC12c1ccc(F)cc1 (stereo not drawn) [Compound 97]
50 to 99 | 69 | Cc1nocc1C(=O)N1CCN2C(=O)c3cc(-c4cccnc4)cn3CC12c1ccc(F)cc1 (stereo not drawn) [Compound 98]
100 to 499 | 190 | Cc1nocc1C(=O)N1CCN2C(=O)c3ccc(-c4ccncc4)n3CC12c1ccc(F)cc1 (stereo not drawn) [Compound 99]
500 to 10000 | 8000 | COc1ccc(C23Cn4cc(-c5ccc(C(=O)O)cc5)cc4C(=O)N2CCN3C(=O)c2conc2C)cc1 (stereo not drawn) [Compound 100]
500 to 10000 | 730 | Cc1nocc1C(=O)N1CCN2C(=O)c3cccn3CC12c1cccnc1 (stereo not drawn) [Compound 101, 1-[(3-methyl-1,2-oxazol-4-yl)carbonyl]-10a-(pyridin-3-yl)-2,3,10,10a-tetrahydro-1H,5H-imidazo[1,2-a]pyrrolo[1,2-d]pyrazin-5-one]
100 to 499 | 380 | Cc1nocc1C(=O)N1CCN2C(=O)c3cccn3CC12c1ccccn1 (stereo not drawn) [Compound 103, 1-[(3-methyl-1,2-oxazol-4-yl)carbonyl]-10a-(pyridin-2-yl)-2,3,10,10a-tetrahydro-1H,5H-imidazo[1,2-a]pyrrolo[1,2-d]pyrazin-5-one]
< 49 | 27 | Cc1ccc(C23Cn4cccc4C(=O)N2CCN3C(=O)c2conc2C)nc1 (stereo not drawn) [Compound 104]
100 to 499 | 130 | Cc1nocc1C(=O)N1CCN2C(=O)c3cccn3CC12c1ccc(C(F)(F)F)nc1 (stereo not drawn) [Compound 105]
< 49 | 4.1 | COc1ccc(C23Cn4c(C#N)ccc4C(=O)N2CCN3C(=O)c2conc2C)cc1 (stereo not drawn) [Compound 106, 10a-(4-methoxyphenyl)-1-[(3-methyl-1,2-oxazol-4-yl)carbonyl]-5-oxo-2,3,10,10a-tetrahydro-1H,5H-imidazo[1,2-a]pyrrolo[1,2-d]pyrazine-8-carbonitrile]
< 49 | 14 | COc1ccc(C23Cn4c(C)ccc4C(=O)N2CCN3C(=O)c2conc2C)cc1 (stereo not drawn) [Compound 107, 10a-(4-methoxyphenyl)-8-methyl-1-[(3-methyl-1,2-oxazol-4-yl)carbonyl]-2,3,10,10a-tetrahydro-1H,5H-imidazo[1,2-a]pyrrolo[1,2-d]pyrazin-5-one]
< 49 | 17 | C#Cc1ccc2n1CC1(c3ccc(OC)cc3)N(C(=O)c3conc3C)CCN1C2=O (stereo not drawn) [Compound 108, 8-ethynyl-10a-(4-methoxyphenyl)-1-[(3-methyl-1,2-oxazol-4-yl)carbonyl]-2,3,10,10a-tetrahydro-1H,5H-imidazo[1,2-a]pyrrolo[1,2-d]pyrazin-5-one]
100 to 499 | 300 | Cc1nocc1C(=O)N1CCN2C(=O)c3cccn3CC12c1ccc(OCCO)cc1 (stereo not drawn) [Compound 109, 10a-[4-(2-hydroxyethoxy)phenyl]-1-[(3-methyl-1,2-oxazol-4-yl)carbonyl]-2,3,10,10a-tetrahydro-1H,5H-imidazo[1,2-a]pyrrolo[1,2-d]pyrazin-5-one]
500 to 10000 | 680 | Cc1nocc1C(=O)N1CCN2C(=O)c3cccn3CC12c1ccc(OCCN2CCOCC2)cc1 (stereo not drawn) [Compound 110, 1-[(3-methyl-1,2-oxazol-4-yl)carbonyl]-10a-{4-[2-(morpholin-4-yl)ethoxy]phenyl}-2,3,10,10a-tetrahydro-1H,5H-imidazo[1,2-a]pyrrolo[1,2-d]pyrazin-5-one]
> 10000 | 16000 | COc1ccc(C23Cn4cc(N)cc4C(=O)N2CCN3C(=O)c2conc2C)cc1 (stereo not drawn) [Compound 111, 7-amino-10a-(4-methoxyphenyl)-1-[(3-methyl-1,2-oxazol-4-yl)carbonyl]-2,3,10,10a-tetrahydro-1H,5H-imidazo[1,2-a]pyrrolo[1,2-d]pyrazin-5-one]
> 10000 | – | COc1ccc(C23Cn4cc(NC5CCCCC5)cc4C(=O)N2CCN3C(=O)c2conc2C)cc1 (stereo not drawn) [Compound 112, 7-(cyclohexylamino)-10a-(4-methoxyphenyl)-1-[(3-methyl-1,2-oxazol-4-yl)carbonyl]-2,3,10,10a-tetrahydro-1H,5H-imidazo[1,2-a]pyrrolo[1,2-d]pyrazin-5-one]
100 to 499 | 320 | COc1ccc(C23Cn4cc(-n5ccnn5)cc4C(=O)N2CCN3C(=O)c2conc2C)cc1 (stereo not drawn) [Compound 113, 10a-(4-methoxyphenyl)-1-[(3-methyl-1,2-oxazol-4-yl)carbonyl]-7-(1H-1,2,3-triazol-1-yl)-2,3,10,10a-tetrahydro-1H,5H-imidazo[1,2-a]pyrrolo[1,2-d]pyrazin-5-one]
< 49 | 39 | Cc1cnc(C23Cn4cccc4C(=O)N2CCN3C(=O)c2conc2C)cn1 (stereo not drawn) [Compound 114]
100 to 499 | 230 | COc1ccc(C23Cn4cccc4C(=O)N2CCN3C(=O)c2conc2C)nc1 (stereo not drawn) [Compound 115]

EC50 [1] [nM] | EC50 [2] [nM] | SMILES
50 to 99 | 59 | Cc1nocc1C(=O)N1CCN2C(=O)c3cccn3CC12c1ccc(C(F)(F)F)cn1 (stereo not drawn) [Compound 116, 1-[(3-methyl-1,2-oxazol-4-yl)carbonyl]-10a-[5-(trifluoromethyl)pyridin-2-yl]-2,3,10,10a-tetrahydro-1H,5H-imidazo[1,2-a]pyrrolo[1,2-d]pyrazin-5-one]
500 to 10000 | 880 | Cc1ccc(C23Cn4cc(Br)cc4C(=O)N2CCN3C(=O)c2conc2C)nc1 (stereo not drawn) [Compound 117]
100 to 499 | 320 | Cc1nocc1C(=O)N1CCN2C(=O)c3cccn3CC12c1cnn(C)c1 (stereo not drawn) [Compound 118]
50 to 99 | 96 | Cc1cc(C23Cn4cccc4C(=O)N2CCN3C(=O)c2conc2C)ccn1 (stereo not drawn) [Compound 119]
50 to 99 | 87 | Cc1ccc(C23Cn4cc(-c5cccnc5)cc4C(=O)N2CCN3C(=O)c2conc2C)nc1 (stereo not drawn) [Compound 120]
< 49 | 42 | Cc1cnc(C23Cn4cc(-c5cccnc5)cc4C(=O)N2CCN3C(=O)c2conc2C)cn1 (stereo not drawn) [Compound 121, 1-[(3-methyl-1,2-oxazol-4-yl)carbonyl]-10a-(5-methylpyrazin-2-yl)-7-(pyridin-3-yl)-2,3,10,10a-tetrahydro-1H,5H-imidazo[1,2-a]pyrrolo[1,2-d]pyrazin-5-one]
100 to 499 | 430 | Cc1nocc1C(=O)N1CCN2C(=O)c3cccn3CC12c1ccncc1 (stereo not drawn) [Compound 122, 1-[(3-methyl-1,2-oxazol-4-yl)carbonyl]-10a-(pyridin-4-yl)-2,3,10,10a-tetrahydro-1H,5H-imidazo[1,2-a]pyrrolo[1,2-d]pyrazin-5-one]
< 49 | 7.8 | Cc1ccc(C23Cn4c(C#N)ccc4C(=O)N2CCN3C(=O)c2conc2C)cn1 (stereo not drawn) [Compound 126]
< 49 | 27 | Cc1ccc(C23Cn4cc(-c5ccccn5)cc4C(=O)N2CCN3C(=O)c2conc2C)cn1 (stereo not drawn) [Compound 127]
50 to 99 | 64 | COc1ccc(C23Cn4cc(-c5ccccn5)cc4C(=O)N2CCN3C(=O)c2conc2C)cn1 (stereo not drawn) [Compound 128]
100 to 499 | 130 | Cc1nocc1C(=O)N1CCN2C(=O)c3cc(-c4ccccn4)nn3CC12c1ccc(F)cc1 (stereo not drawn) [Compound 129]
> 10000 | – | COc1ccc(C23Cn4cccc4C(=O)N2CCN3C(=O)NCc2ccco2)cc1 (stereo not drawn) [Compound 130]
> 10000 | – | COc1ccc(C23Cn4cccc4C(=O)N2CCN3S(=O)(=O)c2ccccc2)cc1 (stereo not drawn) [Compound 131]
< 49 | 31 | Cc1ccc(C23Cn4cc(-c5cnn(C)c5)cc4C(=O)N2CCN3C(=O)c2conc2C)cn1 (stereo not drawn) [Compound 132]
< 49 | 7 | COc1ccc(C23Cn4c(C#N)ccc4C(=O)N2CCN3C(=O)c2conc2C)cn1 (stereo not drawn) [Compound 133]
< 49 | 31 | Cc1ccc(C23Cn4cc(-c5cnn(C)c5)cc4C(=O)N2CCN3C(=O)c2conc2C)nc1 (stereo not drawn) [Compound 134]
< 49 | 9.1 | Cc1ccc(C23Cn4cc(-c5ccncc5)cc4C(=O)N2CCN3C(=O)c2conc2C)cn1 (stereo not drawn) [Compound 135]
500 to 10000 | 890 | COc1ccc(C23Cn4cccc4C(=O)N2CCN3C(=O)c2nonc2C)cc1 (stereo not drawn) [Compound 136]
500 to 10000 | 6600 | COc1ccc(C23Cn4cccc4C(=O)N2CCN3C(=O)c2ccsc2)cc1 (stereo not drawn) [Compound 137]
500 to 10000 | 4200 | COc1ccc(C23Cn4nc(-c5ccccn5)cc4C(=O)N2CCN3C(=O)c2conc2C)cc1 (stereo not drawn) [Compound 138]

SMILES | EC50 [1] [nM] | EC50 [2] [nM]
O=C1c2cccn2CC2(c3cccnc3)NCCN12 (stereo not drawn) [Compound 102, 10a-(pyridin-3-yl)-2,3,10,10a-tetrahydro-1H,5H-imidazo[1,2-a]pyrrolo[1,2-d]pyrazin-5-one] | > 10000 | –
